ChEMBL document CHEMBL1671617, “Correlation of antimicrobial resistance with beta-lactamases, the OmpA-like porin, and efflux pumps in clinical isolates of Acinetobacter baumannii endemic to New York City” (2008)
Values after ≈ are worked out from the molar mass of the structure shown.

Tests used:
Assay type in all cases: functional
Acinetobacter baumannii [1] = assay: Antimicrobial activity against ISAba1 linked with the blaOXA-51-type beta-lactamase harboring Acinetobacter baumannii alpha clonal group isolate 1 expressing ampC, ompA, adeB, adeM by Etest method
Acinetobacter baumannii [2] = assay: Antimicrobial activity against Acinetobacter baumannii alpha clonal group isolate 2 expressing ampC, ompA, adeB, adeM, aacC1, aadA1 by Etest method
Acinetobacter baumannii [3] = assay: Antimicrobial activity against Acinetobacter baumannii alpha clonal group isolate 3 expressing ampC, ompA, adeB, adeM, aacC1, aadA1 by Etest method
Acinetobacter baumannii [4] = assay: Antimicrobial activity against Acinetobacter baumannii alpha clonal group isolate 4 expressing ampC, ompA, adeB, adeM, aacC1, aadA1 by Etest method
Acinetobacter baumannii [5] = assay: Antimicrobial activity against Acinetobacter baumannii alpha clonal group isolate 5 expressing ampC, ompA, adeB, adeM, aacC1, aadA1 by Etest method
Acinetobacter baumannii [6] = assay: Antimicrobial activity against ISAba1 linked with the blaOXA-51-type beta-lactamase harboring Acinetobacter baumannii alpha clonal group isolate 6 expressing ampC, ompA, adeB, adeM, aacC1, aadA1 by Etest method
Acinetobacter baumannii [7] = assay: Antimicrobial activity against ISAba1 linked with the blaOXA-51-type beta-lactamase harboring Acinetobacter baumannii alpha clonal group isolate 7 expressing ampC, ompA, adeB, adeM, blaSHV-5 by Etest method
Acinetobacter baumannii [8] = assay: Antimicrobial activity against ISAba1 linked with the blaOXA-51-type beta-lactamase harboring Acinetobacter baumannii alpha clonal group isolate 8 expressing ampC, ompA, adeB, adeM, aacC1, aadA1 by Etest method
Acinetobacter baumannii [9] = assay: Antimicrobial activity against ISAba1 linked with the blaOXA-51-type beta-lactamase harboring Acinetobacter baumannii beta clonal group isolate 9 expressing ampC, ompA, adeB, adeM by Etest method
Acinetobacter baumannii [10] = assay: Antimicrobial activity against ISAba1 linked with the blaOXA-51-type beta-lactamase harboring Acinetobacter baumannii beta clonal group isolate 10 expressing ompA, adeB, adeM, aacA4, blaSHV-5 by Etest method
Acinetobacter baumannii [11] = assay: Antimicrobial activity against ISAba1 linked with the blaOXA-51-type beta-lactamase harboring Acinetobacter baumannii beta clonal group isolate 11 expressing ompA, adeB, adeM, blaSHV-5 by Etest method
Acinetobacter baumannii [12] = assay: Antimicrobial activity against ISAba1 linked with the blaOXA-51-type beta-lactamase harboring Acinetobacter baumannii beta clonal group isolate 12 expressing ompA, adeB, adeM, aacA4, aacC2, blaSHV-5 by Etest method
Acinetobacter baumannii [13] = assay: Antimicrobial activity against ISAba1 linked with the blaOXA-51-type beta-lactamase harboring Acinetobacter baumannii beta clonal group isolate 13 expressing ompA, adeB, adeM, aacA4, blaSHV-5 by Etest method
Acinetobacter baumannii [14] = assay: Antimicrobial activity against ISAba1 linked with the blaOXA-51-type beta-lactamase harboring Acinetobacter baumannii beta clonal group isolate 14 expressing ompA, adeB, adeM, aacA4, blaSHV-5 by Etest method
Acinetobacter baumannii [15] = assay: Antimicrobial activity against ISAba1 linked with the blaOXA-51-type beta-lactamase harboring Acinetobacter baumannii beta clonal group isolate 15 expressing ompA, adeB, adeM, aacA4, blaSHV-5 by Etest method
Acinetobacter baumannii [16] = assay: Antimicrobial activity against ISAba1 linked with the blaOXA-51-type beta-lactamase harboring Acinetobacter baumannii beta clonal group isolate 16 expressing ompA, adeB, adeM, aacA4, blaSHV-5 by Etest method
Acinetobacter baumannii [17] = assay: Antimicrobial activity against ISAba1 linked with the blaOXA-51-type beta-lactamase harboring Acinetobacter baumannii beta clonal group isolate 17 expressing ompA, adeB, adeM, aacA4, blaSHV-5 by Etest method
Acinetobacter baumannii [18] = assay: Antimicrobial activity against ISAba1 linked with the blaOXA-51-type beta-lactamase harboring Acinetobacter baumannii beta clonal group isolate 18 expressing ompA, adeB, adeM, aacA4, blaSHV-5 by Etest method
Acinetobacter baumannii [19] = assay: Antimicrobial activity against ISAba1 linked with the blaOXA-51-type beta-lactamase harboring Acinetobacter baumannii zeta clonal group isolate 19 expressing ampC, ompA, adeB, adeM, aacC2 by Etest method
Acinetobacter baumannii [20] = assay: Antimicrobial activity against ISAba1 linked with the blaOXA-51-type beta-lactamase harboring Acinetobacter baumannii zeta clonal group isolate 20 expressing ampC, ompA, adeB, adeM, aacC2 by Etest method
Acinetobacter baumannii [21] = assay: Antimicrobial activity against ISAba1 linked with the blaOXA-51-type beta-lactamase harboring Acinetobacter baumannii zeta clonal group isolate 21 expressing ampC, ompA, adeB, adeM, aacC2, blaSHV-5 by Etest method
Acinetobacter baumannii [22] = assay: Antimicrobial activity against ISAba1 linked with the blaOXA-51-type beta-lactamase harboring Acinetobacter baumannii zeta clonal group isolate 22 expressing ampC, ompA, adeB, adeM, aadA1, aacA4, aacC2, blaSHV-5 by Etest method
Acinetobacter baumannii [23] = assay: Antimicrobial activity against ISAba1 linked with the blaOXA-51-type beta-lactamase harboring Acinetobacter baumannii zeta clonal group isolate 23 expressing ampC, ompA, adeB, adeM, aadA1, aacA4, aacC2, aphA6 by Etest method
Acinetobacter baumannii [24] = assay: Antimicrobial activity against ISAba1 linked with the blaOXA-51-type beta-lactamase harboring Acinetobacter baumannii zeta clonal group isolate 24 expressing ampC, ompA, adeB, adeM, aadA1, aacA4, aacC2, blaSHV-5 by Etest method
Acinetobacter baumannii [25] = assay: Antimicrobial activity against ISAba1 linked with the blaOXA-51-type beta-lactamase harboring Acinetobacter baumannii zeta clonal group isolate 25 expressing ampC, ompA, adeB, adeM, aadA1, aacA4, aacC2, blaSHV-5 by Etest method
Acinetobacter baumannii [26] = assay: Antimicrobial activity against ISAba1 linked with the blaOXA-51-type beta-lactamase harboring Acinetobacter baumannii zeta clonal group isolate 26 expressing ampC, ompA, adeB, adeM, aadA1, aacA4, aacC2, blaSHV-5 by Etest method
Acinetobacter baumannii [27] = assay: Antimicrobial activity against Acinetobacter baumannii lambda clonal group isolate 27 expressing ampC, ompA, adeB, adeM, aadB, aadA1 by Etest method
Acinetobacter baumannii [28] = assay: Antimicrobial activity against ISAba1 linked with the blaOXA-51-type beta-lactamase harboring Acinetobacter baumannii lambda clonal group isolate 28 expressing ampC, ompA, adeM, aadB, aadA1 by Etest method
Acinetobacter baumannii [29] = assay: Antimicrobial activity against ISAba1 linked with the blaOXA-51-type beta-lactamase harboring Acinetobacter baumannii lambda clonal group isolate 29 expressing ampC, ompA, adeM, aadB, aadA1 by Etest method
Acinetobacter baumannii [30] = assay: Antimicrobial activity against ISAba1 linked with the blaOXA-51-type beta-lactamase harboring Acinetobacter baumannii lambda clonal group isolate 30 expressing ampC, ompA, adeB, adeM, aadB, aadA1 by Etest method
Acinetobacter baumannii [31] = assay: Antimicrobial activity against Acinetobacter baumannii nu clonal group isolate 31 expressing ampC, ompA, adeB, adeM, aadB, aadA2 by Etest method
Acinetobacter baumannii [32] = assay: Antimicrobial activity against Acinetobacter baumannii nu clonal group isolate 32 expressing ampC, ompA, adeB, adeM, aadB, aadA2 by Etest method
Acinetobacter baumannii [33] = assay: Antimicrobial activity against Acinetobacter baumannii nu clonal group isolate 33 expressing ampC, ompA, adeB, adeM by Etest method
Acinetobacter baumannii [34] = assay: Antimicrobial activity against Acinetobacter baumannii nu clonal group isolate 34 expressing ampC, ompA, adeB, adeM by Etest method
Acinetobacter baumannii [35] = assay: Antimicrobial activity against Acinetobacter baumannii eta clonal group isolate 35 expressing ampC, ompA, adeB, adeM by Etest method
Acinetobacter baumannii [36] = assay: Antimicrobial activity against Acinetobacter baumannii eta clonal group isolate 36 expressing ampC, ompA, adeB, adeM by Etest method
Acinetobacter baumannii [37] = assay: Antimicrobial activity against Acinetobacter baumannii unique clonal group isolate 37 expressing ampC, ompA, adeB, adeM by Etest method
Acinetobacter baumannii [38] = assay: Antimicrobial activity against Acinetobacter baumannii unique clonal group isolate 38 expressing ampC, ompA, adeB, adeM by Etest method
Acinetobacter baumannii [39] = assay: Antimicrobial activity against Acinetobacter baumannii unique clonal group isolate 39 expressing ampC, ompA, adeM by Etest method
Acinetobacter baumannii [40] = assay: Antimicrobial activity against ISAba1 linked with the blaOXA-51-type beta-lactamase harboring Acinetobacter baumannii unique clonal group isolate 40 expressing ampC, ompA, adeB, adeM, aadA1, aacA4, aacC2, blaSHV-5 by Etest method

Compound | MIC (Acinetobacter baumannii [1]) [µg/mL] | MIC (Acinetobacter baumannii [2]) [µg/mL] | MIC (Acinetobacter baumannii [3]) [µg/mL] | MIC (Acinetobacter baumannii [4]) [µg/mL] | MIC (Acinetobacter baumannii [5]) [µg/mL] | MIC (Acinetobacter baumannii [6]) [µg/mL] | MIC (Acinetobacter baumannii [7]) [µg/mL] | MIC (Acinetobacter baumannii [8]) [µg/mL] | MIC (Acinetobacter baumannii [9]) [µg/mL] | MIC (Acinetobacter baumannii [10]) [µg/mL] | MIC (Acinetobacter baumannii [11]) [µg/mL] | MIC (Acinetobacter baumannii [12]) [µg/mL] | MIC (Acinetobacter baumannii [13]) [µg/mL] | MIC (Acinetobacter baumannii [14]) [µg/mL] | MIC (Acinetobacter baumannii [15]) [µg/mL] | MIC (Acinetobacter baumannii [16]) [µg/mL] | MIC (Acinetobacter baumannii [17]) [µg/mL] | MIC (Acinetobacter baumannii [18]) [µg/mL] | MIC (Acinetobacter baumannii [19]) [µg/mL] | MIC (Acinetobacter baumannii [20]) [µg/mL] | other results
C[C@@H](O)[C@H]1C(=O)N2C(C(=O)O)=C(SCCNC=N)C[C@H]12 [IMIPENEM ANHYDROUS] | 2 (≈ 6.68 µM) | 0.38 (≈ 1.27 µM) | 0.38 (≈ 1.27 µM) | 0.38 (≈ 1.27 µM) | 0.38 (≈ 1.27 µM) | 3 (≈ 10 µM) | 4 (≈ 13.4 µM) | 6 (≈ 20 µM) | 12 (≈ 40.1 µM) | 16 (≈ 53.4 µM) | > 32 | 32 (≈ 107 µM) | > 16 | > 16 | > 16 | > 16 | > 16 | 12 (≈ 40.1 µM) | 1 (≈ 3.34 µM) | 1 (≈ 3.34 µM) | MIC (Acinetobacter baumannii [21]): 6 µg/mL (≈ 20 µM); MIC (Acinetobacter baumannii [22]): 16 µg/mL (≈ 53.4 µM); MIC (Acinetobacter baumannii [23]): > 32 µg/mL; MIC (Acinetobacter baumannii [24]): > 1.5 µg/mL; MIC (Acinetobacter baumannii [25]): > 1.5 µg/mL; MIC (Acinetobacter baumannii [26]): > 1.5 µg/mL; MIC (Acinetobacter baumannii [27]): 4 µg/mL (≈ 13.4 µM); MIC (Acinetobacter baumannii [28]): 16 µg/mL (≈ 53.4 µM); MIC (Acinetobacter baumannii [29]): 16 µg/mL (≈ 53.4 µM); MIC (Acinetobacter baumannii [30]): 8 µg/mL (≈ 26.7 µM); MIC (Acinetobacter baumannii [31]): 0.25 µg/mL (≈ 0.835 µM); MIC (Acinetobacter baumannii [32]): 0.25 µg/mL (≈ 0.835 µM); MIC (Acinetobacter baumannii [33]): 0.25 µg/mL (≈ 0.835 µM); MIC (Acinetobacter baumannii [34]): 0.25 µg/mL (≈ 0.835 µM); MIC (Acinetobacter baumannii [35]): 0.25 µg/mL (≈ 0.835 µM); MIC (Acinetobacter baumannii [36]): 0.25 µg/mL (≈ 0.835 µM); MIC (Acinetobacter baumannii [37]): 0.5 µg/mL (≈ 1.67 µM); MIC (Acinetobacter baumannii [38]): 0.19 µg/mL (≈ 0.635 µM); MIC (Acinetobacter baumannii [39]): 0.25 µg/mL (≈ 0.835 µM); MIC (Acinetobacter baumannii [40]): > 32 µg/mL
C[C@H]1COc2c(N3CCN(C)CC3)c(F)cc3c(=O)c(C(=O)O)cn1c23.C[C@H]1COc2c(N3CCN(C)CC3)c(F)cc3c(=O)c(C(=O)O)cn1c23.O [LEVOFLOXACIN] | 16 | > 12 | > 12 | > 12 | > 12 | 6 | 6 | 32 | > 32 | > 32 | > 32 | > 32 | > 32 | > 32 | > 32 | > 32 | > 32 | > 32 | 12 | 12 | MIC (Acinetobacter baumannii [21]): > 32 µg/mL; MIC (Acinetobacter baumannii [22]): 16 µg/mL; MIC (Acinetobacter baumannii [23]): 12 µg/mL; MIC (Acinetobacter baumannii [24]): 16 µg/mL; MIC (Acinetobacter baumannii [25]): 16 µg/mL; MIC (Acinetobacter baumannii [26]): 16 µg/mL; MIC (Acinetobacter baumannii [27]): 3 µg/mL; MIC (Acinetobacter baumannii [30]): 16 µg/mL; MIC (Acinetobacter baumannii [31]): > 12 µg/mL; MIC (Acinetobacter baumannii [32]): > 12 µg/mL; MIC (Acinetobacter baumannii [33]): 4 µg/mL; MIC (Acinetobacter baumannii [34]): 4 µg/mL; MIC (Acinetobacter baumannii [35]): > 6 µg/mL; MIC (Acinetobacter baumannii [36]): > 6 µg/mL; MIC (Acinetobacter baumannii [37]): 6 µg/mL; MIC (Acinetobacter baumannii [38]): 0.13 µg/mL; MIC (Acinetobacter baumannii [39]): 0.09 µg/mL; MIC (Acinetobacter baumannii [40]): > 32 µg/mL
C[C@@H](O)[C@H]1C(=O)N2C(C(=O)O)=C(S[C@@H]3CN[C@H](C(=O)N(C)C)C3)[C@H](C)[C@H]12 [MEROPENEM] | 4 (≈ 10.4 µM) | 1.5 (≈ 3.91 µM) | 1.5 (≈ 3.91 µM) | 1.5 (≈ 3.91 µM) | 1.5 (≈ 3.91 µM) | 12 (≈ 31.3 µM) | > 32 | 24 (≈ 62.6 µM) | > 32 | > 32 | > 32 | > 32 | > 32 | > 32 | > 32 | > 32 | > 32 | > 32 | > 1.5 | > 1.5 | MIC (Acinetobacter baumannii [21]): 16 µg/mL (≈ 41.7 µM); MIC (Acinetobacter baumannii [22]): > 32 µg/mL; MIC (Acinetobacter baumannii [23]): > 32 µg/mL; MIC (Acinetobacter baumannii [24]): > 2 µg/mL; MIC (Acinetobacter baumannii [25]): > 2 µg/mL; MIC (Acinetobacter baumannii [26]): > 2 µg/mL; MIC (Acinetobacter baumannii [27]): 32 µg/mL (≈ 83.4 µM); MIC (Acinetobacter baumannii [28]): > 32 µg/mL; MIC (Acinetobacter baumannii [29]): > 32 µg/mL; MIC (Acinetobacter baumannii [30]): > 32 µg/mL; MIC (Acinetobacter baumannii [31]): 0.38 µg/mL (≈ 0.991 µM); MIC (Acinetobacter baumannii [32]): 0.38 µg/mL (≈ 0.991 µM); MIC (Acinetobacter baumannii [33]): 0.38 µg/mL (≈ 0.991 µM); MIC (Acinetobacter baumannii [34]): 0.38 µg/mL (≈ 0.991 µM); MIC (Acinetobacter baumannii [35]): 0.75 µg/mL (≈ 1.96 µM); MIC (Acinetobacter baumannii [36]): 0.75 µg/mL (≈ 1.96 µM); MIC (Acinetobacter baumannii [37]): 1.5 µg/mL (≈ 3.91 µM); MIC (Acinetobacter baumannii [38]): 0.38 µg/mL (≈ 0.991 µM); MIC (Acinetobacter baumannii [39]): 0.25 µg/mL (≈ 0.652 µM); MIC (Acinetobacter baumannii [40]): > 32 µg/mL
